Data as given in EP0730589B1, “ISOXAZOLINE COMPOUNDS USEFUL AS […] ANTAGONISTS” (THE DU PONT MERCK PHARMACEUTICAL COMPANY, priority 1993, dated 1995).

Test system: platelet aggregation
Experiment: Platelet aggregation assay (platelet rich plasma, PRP)
Assay type: cell-based
Conditions: inhibition of agonist-induced aggregation in human platelet rich plasma (PRP); ester prodrugs preincubated with porcine liver esterase, ADP-induced
Experimental: Platelet Aggregation Assay: Venous blood was obtained from the arm of a healthy human donor who was drug-free and aspirin-free for at least two weeks prior to blood collection. Blood was collected into 10 mL citrated vacutainer tubes. The blood was centrifuged for 15 minutes at 150 x g at room temperature, and platelet-rich plasma (PRP) was removed. The remaining blood was centrifuged for 15 minutes at 1500 x g at room temperature, and platelet-poor plasma (PPP) was removed. Samples were assayed on a aggregometer (PAP-4 Platelet Aggregation Profiler), using PPP as the blank (100% transmittance). 200 µL of PRP was added to each micro test tube, and transmittance was set to 0%. 20 µL of various agonists (ADP, collagen, arachidonate, epinephrine, thrombin) were added to each tube, and the aggregation profiles were plotted (% transmittance versus time). The results are expressed as % inhibition of agonist-induced platelet aggregation. For the IC50 evaluation, the test compounds were added at various concentrations prior to the activation of the platelets.
Ester prodrugs were preincubated (10^-3 M F.C.) with 100 IU/ml Porcine liver esterase (Sigma Chemical Co., St. Louis, MO, #E-3128) for 2 hours at 37 °C. Aliquots are then diluted in 0.1 M Tris, pH 7.4, to the desired concentrations. Aliquots of 20 µl of the esterase pretreated prodrugs are added to 200 µl of human platelet rich plasma. Samples were placed in platelet profiler (aggregometer) for 8 minutes at 37 °C, followed by the addition of 100 µM adenosine diphosphate (Sigma Chemical Co., St. Louis, MO, #A-6521), to induce platelet aggregation. Platelet aggregation was allowed to proceed for 5 minutes. Percent inhibition is calculated using percent aggregation in the presence of the test compound divided by percent aggregation of control, times 100. This value is subtracted from 100, yielding percent inhibition. Calculation of IC50 is performed on a Texas Instruments TI59 with an IC50 program.
Table 2 below sets forth the biological activity of representative compounds of the present invention. The indicated compounds were tested for their ability to inhibit platelet aggregation (using platelet rich plasma (PRP)). The IC50 value (the concentration of antagonist which inhibits platelet aggregation by 50% relative to a control lacking the antagonist) is shown. In Table 5 the IC50 values are expressed as: +++ = IC50 of <10 µM; ++ = ICso of 10-50 µM; + = IC50 of 50-100 µM (µM = micromolar).

Structure (SMILES) | IC50 [µM]
CCCCCNC(=N)c1ccc(C2=NOC(CC(=O)NCCC(=O)O)C2)cc1 (stereo not drawn) [Example 28] | < 10
CCCCNC(=N)c1ccc(C2=NOC(CC(=O)NCCC(=O)OCC)C2)cc1 (racemic) [Example 26, Ethyl 5(R,S)-3-[3-(4-N-n-Butylamidinophenyl)isoxazolin-5-ylacetyl]aminopropanoate] | < 10
N=C(N)c1ccc(C2=NOC(CC(=O)NCCC(=O)O)C2)cc1 (racemic) [Example 1, 5(R,S)-3-[3-(4-Amidinophenyl)isoxazolin-5-ylacetyl]aminopropanoic Acid] | < 10
CCCNC(=N)c1ccc(C2=NOC(CC(=O)NCCC(=O)O)C2)cc1 (racemic) [Example 25] | < 10
CCCCNC(=N)c1ccc(C2=NOC(CC(=O)NCCC(=O)O)C2)cc1 (racemic) [Example 27] | < 10
CCOC(=O)CCNC(=O)CC1CC(c2ccc(C(=N)NCCC(C)C)cc2)=NO1 (racemic) [Example 31] | < 10
CCCCCNC(=N)c1ccc(C2=NOC(CC(=O)NCCC(=O)OCC)C2)cc1 (racemic) [Example 29] | < 10
COC(=O)CCNC(=O)CC1CC(c2ccc(C(=N)NCc3ccccc3)cc2)=NO1 (stereo not drawn) [Example 32] | < 10
CNC(=N)c1ccc(C2=NOC(CC(=O)NCCC(=O)O)C2)cc1 (racemic) [Example 21] | < 10
